# What was measured:
# HeLa-P4 cell = assay: Viability assay (cytotoxicity, MTT); assay type: cell-based; settings: 2 days, comparative compound table, read-out: Cytotoxicity IC50
# Protocol: (§1) The cytotoxicity of compounds was evaluated using un-infected and infected HeLa-P4 cell and CEM leukemia cells. CEM cell were obtained from the […] (Rockville, MD). A serial dilution of drugs is done to evaluate the cytotoxicity concentration and is identified by CC50 (concentration of drug which induces 50% of cytotoxicity) The HeLa-P4 was cultured in the presence or absence of compounds for 2 days. After this time period, cells were cultivated with MTT for 3 hours, further the medium is removed. And the lysis buffer is incubated for 1 hour, followed by plate reading at 540 nm in a microplate reader.
# [1] = system: wild type HIV-1 virus (NL 4.3 strains); assay: Antiviral activity assay on Hela P4 cells (beta-galactosidase, CPRG); assay type: cell-based; settings: Human immunodeficiency virus 1; HelaP4 cells, 48 hours incubation
# Protocol: The antiviral activity is determined by infecting HelaP4 cells with a wild type HIV-1 virus (NL 4.3 strains at 3 ng) on cells in presence or absence of drugs. A serial dilution of drugs is done to evaluate the EC50. The effective concentration is the concentration of product at which virus replication is inhibited by 50 percent. After 48 hours incubation, the quantification is done by the evaluation of β-Galactosidase produced by the infected Hela P4 cells. The viral activity is evaluated by colorimetric assay, CPRG, followed by plate reading at 570 nm with a reference of 690 nm. The CPRG test is a colorimetric assay which allows to quantity the β-galactosidase produced by HIV-1 infected indicator cells (the β-Gal gene being under the control of the HIV-1 LTR).
# HBX2 HIV integrase [2] = target: T1, HBX2 HIV integrase (Human immunodeficiency virus type 1 group M subtype B, UniProt P04585); assay: Strand transfer assay; assay type: biochemical; settings: IN 200nM, substrate DNA 12.5 nM, up to 2 h at 37°C, read-out: Transfert IC50
# Protocol: The pET-15b-IN plasmid contains the cDNA encoding the HBX2 HIV integrase. His-tagged integrase protein was overexpressed in Escherichia coli BL21 (DE3) and purified under native conditions. Briefly, at an OD of 0.8, fusion protein expression was induced in bacterial cultures by the addition of IPTG (1 mM). Cultures were incubated for 3 h at 37°C, after which cells were centrifuged. The cell pellet was resuspended in ice-cold buffer A [20 mM Tris-HCl (pH 8), 1 M NaCl, 4 mM β-mercaptoethanol, and 5 mM imidazole], treated with lysozyme for 1 h on ice, and sonicated. After centrifugation (30 min at 10 000 rpm), the supernatant was filtered (0.45 µm) and incubated for at least 2 h with Ni-NTA agarose beads (Pharmacia). The beads were washed twice with 10 volumes of buffer A, 10 volumes of buffer A with 50 mM imidazole, and 10 volumes of buffer A with 100 mM imidazole. His-tagged integrase was then eluted with buffer A supplemented with 50 µM ZnS04 and 1 M imidazole. […]
# Processing, strand transfer reactions were performed using U5A-U5B-2, in buffer containing 20 mM Tris (pH 7.2), 50 mM NaCl, 10 mM DTT, 10mM MgCl2. […] Gels were analyzed using a STORM Molecular Dynamics phosphorimager and quantified with Image Quant™ 4.1 software.
# HBX2 HIV integrase [3] = target: T1, HBX2 HIV integrase; assay: 3' LTR processing assay; assay type: biochemical; settings: 3' processing, IN 200nM, substrate DNA 12.5 nM, up to 2 h at 37°C
# Protocol: For processing, strand transfer, 100 pmol of U5B, U5B-2, respectively, were radiolabeled using T4 polynucleotide kinase and 50 µCi of [γ-32P]ATP (3000 Ci/mmol). The T4 kinase was heat inactivated, and unincorporated nucleotides were removed using a Sephadex G-10 column (GE HealthCare). NaCl was added to a final concentration of 0.1 M, and complementary unlabeled strand U5A was added to either U5B or U5B-2. The mixture was heated to 90°C for 3 min, and the DNA was annealed by slow cooling.
# Processing reaction was performed using U5A-U5B, in buffer containing 20 mM Tris (pH 7.2), 50 mM NaCl, 10 mM DTT, and 10mM MgCl2. […] The reactions were stopped by phenol/chloroform extraction, and DNA products were precipitated with ethanol. The products were separated in TE containing 7 M urea and electrophoresed on an 18% denaturing acrylamide/urea gel. Gels were analyzed using a STORM Molecular Dynamics phosphorimager and quantified with Image Quant™ 4.1 software.
# [4] = Viability assay (cytotoxicity, MTT); assay type: cell-based; settings: human, HeLa-P4 cells, read-out: Cytoto -xicity IC50
# Protocol: as §1
Compound,CC50 (HeLa-P4 cell),IC50 [1],IC50 (HBX2 HIV integrase [2]),IC50 (HBX2 HIV integrase [3]),IC50 at 2 days [4]
"COc1cc(/C=C/c2ccc3ccc(C(=O)O)c(O)c3n2)cc(O)c1O [FZ41, reference compound]",> 100 µM,,,,
"CC(=O)c1ccc2ccc(/C=C/c3cc(O)c(O)cc3O)nc2c1O [SQE 95, (E)-1-(8-hydroxy-2-(2,4,5-trihydroxystyryl)quinolin-7-yl)ethanone]",,13.8 µM,0.199 µM,0.199 µM,12.5 µM
